Measured values reported in patent US7081247B2, “Composition and method for inhibiting polar capsule discharge and protecting a subject from nematocyst sting” (priority 2002, dated 2006).

Legend:
[1] = system: isolated nematocyst capsules; conditions: 50 mM CaCl2; cited from earlier work
[2] = system: Aiptasia Mutabilis acontial filament nematocysts; conditions: 2 mM in seawater medium; cited from earlier work
[3] = system: nematocyte batteries in the oral arms of Pelagia nociluca; conditions: applied through a gelatin probe; cited from earlier work
[4] = system: jellyfish Rhopilema nomadica nematocysts; assay: Inhibition of nematocyst discharge into human skin samples (immunohistochemical analysis); type: cell-based; conditions: human skin sections, 10 seconds contact with jellyfish tentacles
Method: Normal human skin was obtained from neonatal elective circumcision. The skin was immediately placed into sterile phosphate buffered saline (PBS) containing antibiotic/antimycotic. The tissue was frozen and embedded in Tissue-TekTM. It was then sectioned into 50 μm sections using a cryostat. The sections were attached to superfrost/plus microscope slide (Fisherbrand) and maintained at […] until time of use. All sections were examined to ensure that they were perpendicular to the plane of the epidermis, exposing cross-sections of epidiermis, dermis and sub-cutaneos tissue.
For immunoassay tests to detect cnidaria stinging level of human skin, a polyclonal antibody specific for nematocyst toxin was prepared, as described in Lotan et al (1996).
Briefly, the HPLC fraction containing the toxin phospholipase A2 from the jellyfish Rhopilema nomadica was isolated and injected into rabbits as described in Vaitukaitis, pp. 46–52, “Immunochemical Techniques, Part B,” in Methods in enzymology, vol. 73, ed. Larson & Vunkis (academic Press, New York, 1981). Serum was collected from the rabbits after two injections, and the presence of antibody against the jellyfish toxin was examined on immunoblots.
The slides prepared and frozen as described above were thawed at room temperature. The slides were submersed in sea water and then attached to jellyfish or sea anemone tentacles for 10 seconds. The tentacles were detached, the slide washed with PBS, and blocked using 5% Fetal Bovine Serum, and 0.1% Triton X100 in PBS (blocking solution). All washing incubation steps were conducted on a tilting shaker at room temperature. The slides were incubated at 10 ml of block solution containing a 1:2, 500 dilution of the anti-toxin antibody for one hour. After incubation, the slide were washed five times for five minutes each wash with 100 mL of 0.1% TritonX100 in PBS (Wash solution). […]
Twelve sections of human skin samples were tested in each experiment. […] The number of nematocysts that penetrated the skin was determined using immunohistochemical analysis.

[5] = Water resistance of ointment on virgin wool squares in seawater (atomic absorption); type: physicochemical; conditions: 80 RPM
Method: To determine the water resistance of an ointment containing 50 mM LaCl3, prepared according the above-described conditions, three squares (10×10 CM) of virgin wool, keratin protein that is used as a substrate to approximate human skin, were used. Each square of wool was treated with 1-gram of ointment containing 50 mM LaCl3. After 20 minutes of drying at room temperature, the squares of wool were immersed in one liter of seawater and agitated (80 RPM) for 30 minutes, 60 minutes, or 120 minutes. The ointment was extracted separately from each square of wool with 50 ml 1% Tritox100 under boiling. The Lanthanum chloride concentration of each sample of extracted ointment was monitored with the use of atomic absorption.

## [Ca+2].[Cl-].[Cl-] [CaCl2]
[1]
  discharge of isolated nematocyst capsules: do not discharge

## [Cl-].[Cl-].[Co+2] [CoCl2, reference compound]
[2]
  effect on nematocyst discharge: inactivates nematocyst discharge

## [Gd+3] [Gd^+3]
[3]
  effect on discharge of nematocyte batteries: prevents discharge

## [Cl][La]([Cl])[Cl] [LaCl3, Lanthanum Chloride]
[4]; 2 mM LaCl3 in ointment
  inhibition of nematocyst penetration: 44%
[4]; 5 mM LaCl3 in ointment
  reduction in the sting: 76%
[4]; 50 mM LaCl3 in lotion
  reduction of the sting: 92%
[5]; ointment containing 50 mM LaCl3, 30 minutes water submersion
  LaCl3 retained in the ointment: 90%
[5]; ointment containing 50 mM LaCl3, 60 minutes water submersion
  Lanthanum remaining in the ointment: 77%
[5]; ointment containing 50 mM LaCl3, 120 minutes water submersion
  LaCl3 left in the ointment: 70%
[2]
  effect on nematocyst discharge: inactivates nematocyst discharge
